Test results taken from patent US9000029B2, “Proline sulfonamide derivatives as orexin receptor antagonists” (Actelion Pharmaceuticals Ltd., priority 2010, dated 2015).

Key:
Assay type in all cases: in vivo, rat
Wistar Rats [1] = test: Social stress-induced hyperthermia and tachycardia; details: 100 mg/kg orally two hours before one hour social interaction stress
Source text: 3) Effects on Social Stress-Induced Hyperthermia and Tachycardia
Exposure to both physiological and psychological stress in mammals leads to an elevation of core body temperature and heart rate referred to as stress-induced hyperthermia (SIH) and stress-induced tachycardia (SIT).
The SIH/SIT response can be observed in humans equally well as in rodents providing excellent animal to human translational possibilities.
12 male Wistar rats were implanted intraperitoneally with transmitters that allowed the simultaneous recording of body temperature (in degrees Celsius) [FIG. 2 A)] and heart rate (in beats per minute) [FIG. 2 B)] via external receivers. Rats were treated orally with 100 mg/kg of compound of example 26 two hours before exposure to an one hour-lasting social interaction stress. Columns 1 and 2 show the effect on body temperature [FIG. 2 A)], respectively heart rate [FIG. 2 B)], after vehicle (1) or drug (2) treatment without exposure to stress; columns 3 and 4 show the effect with exposure to stress after vehicle (3) or drug (4) treatment.

F344 rats = test: Fear-potentiated startle and forepaw grip strength; details: 100 and 300 mg/kg p.o.
Source text: 4) Effects of Compound of Example 26 on Fear-Potentiated Startle
The fear-potentiated startle (FPS) paradigm is a model of conditioned fear [Fendt M et al., Neuroscience Biobehav Rev. 1999, 23, 743-760]. Rats can be trained to associate an initially neutral, soon-to-be conditioned stimulus (CS; e.g., light) with an aversive, unconditioned stimulus (US; e.g., foot shock). When tested after training for their startle reflex response to brief (ms) noise bursts in the absence (no-CS) vs. the presence of the CS, rats generally show greater startle amplitudes during the presence of the CS which now serves as a predictor of shock. In humans a similar training procedure can be implemented and a FPS response can also be evoked in the presence of a shock-predicting CS.
Conditioned fear models including FPS mimic in particular the response to specific threats. […] Rather the compound may reduce those startle reactions as a consequence of reduced fear of the shock-context or reduced fear of the slightly aversive startle-eliciting noise pulses per se.
Male F344 rats were trained for two consecutive days (conditioning phase) to associate a light-stimulus with a foot shock. On the following day they were tested for their response to startle-eliciting noise stimuli which were delivered randomly under light (CS) or dark (no-CS) conditions. Two hours before the test rats were treated with one dose of compound of example 26 (0, 30, 100, 300 mg/kg p.o.). Average startle responses under light (CS) [FIG. 3 A)] and dark conditions (no-CS) [FIG. 3 B)] during the test day were measured and recorded as an electric signal (in mV). Following startle testing, rats underwent an additional forepaw grip strength (in g) [FIG. 3 C)] test to control for potential myorelaxant effects of the compound (dosed at 0, 30, 100, 300 mg/kg p.o.).

Wistar Rats [2] = test: Sedative effects: EEG, EMG and behavioural indices of alertness recorded by radiotelemetry; details: 100 mg/kg po; effects analyzed over 6 hours; compared to vehicle controls
Procedure: II. Biological Assays 1) Sedative Effects: EEG, EMG and Behavioural Indices of Alertness Recorded by Radiotelemetry In Vivo in Wistar Rats.
Electroencephalography (EEG) and Electromyography (EMG) signals were measured by telemetry using TL11M2-F20-EET miniature radiotelemetric implants (Data Science Int.) with two pairs of differential leads.
Surgical implantation was performed under general anesthesia with Ketamin/Xylazin, for cranial placement of one differential pair of EEG electrodes and one pair of EMG leads inserted in either side of the muscles of the neck. After surgery, rats recovered in a thermoregulated chamber and received analgesic treatment with subcutaneous buprenorphine twice a day for 2 d. They were then housed individually and allowed to recover for a minimum of 2 weeks. Thereafter, rats—in their home cage—were placed in a ventilated sound-attenuating box, on a 12-h light/12-h dark cycle, for acclimatization before continuous EEG/EMG recordings started. The telemetric technology that we used in this study allows accurate and stress-free acquisition of biosignals in rats placed in their familiar home cage environment, with no recording leads restricting their movements. Variables analyzed included four different stages of vigilance and sleep, spontaneous activity in the home cage and body temperature. Sleep and wake stages were evaluated using a rodent scoring software (Somnologica Science) directly processing electrical biosignals on 10 s contiguous epochs. The scoring is based on frequency estimation for EEG and amplitude discrimination for EMG and locomotor activity. Using these measurements, the software determines the probability that all components within each epoch best represent active waking (AW), quiet waking (QW), non-REM-sleep (NREM) or REM-sleep (REM). The percentage of total time spent in AW, QW, NREM- and REM-sleep was calculated per 12 h light or dark period. The latency to the onset of the first significant NREM- and REM-sleep episodes and the frequency and duration of those episodes were also calculated. AW, QW, NREM- and REM-sleep, home cage activity and body temperature were measured at baseline for at least one total circadian cycle (12 h-night, 12 h-day) before a test compound was administered. […] All variables were subsequently recorded for 12 h following administration of the orexin receptor antagonist.
The compound of Example 26 has been tested in this assay (oral dosage: 100 mg/kg po; effects analyzed over 6 hours): Results are: −26% on active wake, −51% on home cage activity, +28% on NREM sleep, +69% on REM sleep; when compared to vehicle controls.

forepaw grip strength (myorelaxant effects) (F344 rats): without affecting
Structure (SMILES): COc1ccc(S(=O)(=O)N2CCC[C@H]2C(=O)Nc2cc(C)cc(C)c2)cc1 [Example 26, (S)-1-(4-Methoxy-benzenesulfonyl)-pyrrolidine-2-carboxylic acid (3,5-dimethyl-phenyl)-amide]
social stress-induced hyperthermia (Wistar Rats [1]): significantly attenuated
social stress-induced tachycardia (Wistar Rats [1]): significantly attenuated
fear-potentiated startle response under CS conditions (F344 rats; two hours before test): significantly reduced
startle response under no-CS conditions (F344 rats; two hours before test): significantly reduced
effect on NREM sleep (Wistar Rats [2]): +28%
effect on REM sleep (Wistar Rats [2]): +69%
effect on active wake (Wistar Rats [2]): −26%
effect on home cage activity (Wistar Rats [2]): −51%
